Assay results reported in patent EP1257552B1, “XANTHINE DERIVATIVES, INTERMEDIATES AND USE FOR TREATING OSTEOPOROSIS” (Aventis Pharma S.A., priority 2000, dated 2001).

Experiments:
Type in all cases: in vivo
OS TIBIA = experiment: Bone mineral density (DEXA) of the tibia in the ovariectomised rat osteopenia model, preventive treatment; conditions: once daily, 5 days/week for 4 weeks, (BMD treated - BMD OVX)/(BMD SHAM - BMD OVX) x 100
Experimental: (§1) L'impact osseux de ces dérivés xanthine a été évalué sur un modèle d'ostéopénie, la rate ovariectomisée à l'âge de 3 mois, afin de déterminer ses effets sur la masse osseuse, et sur l'activité de formation et de résorption osseuse. Les animaux sont traités en préventif.
(§2) Sur ce modèle d'ostéopénie l'effet de ces dérivés xanthine est comparé à celui de la PTH • Produit à tester : composé de l'exemple 1 • véhicule(s) : méthylcellulose 0,5 % ou sérum physiologique • dose(s) : 10 mg/kg pour le produit. la PTH est administrée à la dose de 10 µg ou 25 µg/kg/j par voie sous cutanée • nombre d'administrations : une fois/jour; 5 jours/semaine pendant 4 semaines • voie d'administration : voie orale pour le produit. La PTH est administrée par voie sous cutanée • volume : 1 ml/kg p o et s c • délai entre l'injection et le sacrifice : 24 heures • nombre d'administrations : 20
(§3) Des rats femelles âgées de 3 mois et pesant environ 250-300 g sont ovariectomisées sous anesthésie à l'Imalgène 1000, à la dose de 100 mg/kg par voie intrapéritonéale (i.p) et sous un volume de 1 ml/kg. Ils reçoivent également du Nembutal (3 mg/kg i.p. sous un volume de 0,3 ml/kg). Les animaux sont répartis en groupes de 8 rats. Après incision latérale, les plans cutanés et musculaires sont sectionnés. L'exérèse de chaque ovaire se fait après ligature de l'oviducte. Les rats "SHAM" sont anesthésiés dans les mêmes conditions. Après incision des plans cutanés et musculaires, chaque ovaire est exposé puis replacé in situ.
(§4) Les effets des produits sont déterminés après un traitement préventif. Les traitements débutent 24 heures après ovariectomie. Les animaux sont traités pendant 4 semaines, et se répartissent de la façon suivante : • un groupe témoin Sham recevant le ou les véhicules • un groupe témoin OVX recevant le ou les véhicules • OVX + dérivé xanthine • OVX + PTH
La masse osseuse (BMD ou Bone Mineral Density = densité minérale osseuse) est mesurée par absorptiométrie biphotonique à rayons X à double énergie (DEXA). Les mesures sont réalisées sur les os excisés et débarrassés de tous les tissus mous. […]

UTERUS = experiment: Uterus weight in the ovariectomised rat osteopenia model; conditions: 4 weeks, weight increase in % of uterus weight of OVX animals receiving solvent only
Experimental: as §1, §2, §3, §4
Les utérus sont prélevés. Ces derniers sont pesés. L'augmentation du poids est exprimée, en % du poids de l'utérus des animaux ovariectomisés ne recevant que le solvant. • au niveau osseux : […]

Cholestérol = experiment: Serum cholesterol level in the ovariectomised rat osteopenia model; conditions: 4 weeks, decrease of serum cholesterol in % versus OVX animals receiving solvent only
Experimental: as §1, §2, §3, §4
Au terme des 4 semaines de traitement, les animaux sont décapités par guillotine. Les sérums recueillis après centrifugation sont conservés à -20°C. […]

| Compound | OS TIBIA Densité % (OS TIBIA; 10 mg/kg po) | UTERUS Poids % (UTERUS; 10 mg/kg po) | Cholestérol % (Cholestérol; 10 mg/kg po) | OS TIBIA Densité % (OS TIBIA; 10 µg/kg sc) | OS TIBIA Densité % (OS TIBIA; 25 µg/kg sc) | UTERUS Poids % (UTERUS; 10 µg/kg sc) | UTERUS Poids % (UTERUS; 25 µg/kg sc) | Cholestérol % (Cholestérol; 10 µg/kg sc) | Cholestérol % (Cholestérol; 25 µg/kg sc) |
| --- | --- | --- | --- | --- | --- | --- | --- | --- | --- |
| O=c1c2[nH]cnc2n(-c2ccccc2)c(=O)n1Cc1ccncc1 [ex 1, chlorhydratede 3,7-dihydro-3-phényl-1-(4-pyridinylméthyl)-1H-purine-2,6-dione] | 60% | 15% | Pas d'effet | – | – | – | – | – | – |
| PTH | – | – | – | 69% | 100% | Pas d'effet | 9% | Pas d'effet | Pas d'effet |
